These results are taken from PubChem BioAssay AID220 (DTP/NCI, 2004).

Values joined by “and” are separate entries in the source; they are usually repeats but may differ in a detail not shown here. Equal values may be shown once. Results filed as inconclusive are left out.

The test system of this test is CD8F1 mice, subcutaneous mammary adenocarcinoma, T/C%. As to the kind of experiment: NCI In Vivo Anticancer Drug Screen. Data for tumor model Mammary Adenocarcinoma CD8F1 (subcutaneous) in CD8F1. The note with it: higher = larger tumour. Summed up:
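Tumor-bearing mice, transplantable model; readout survival or tumor size; value = treated (T) / vehicle control (C).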

[1] abbreviates: endpoint: median tumor weight (est.), dose: 12.5 mg/kg/injection, schedule: Q07DX005 (ip), vehicle: saline with Tween-80.
The mark [2] stands for this setting: endpoint: median tumor weight (est.), dose: 25.0 mg/kg/injection, schedule: Q07DX005 (ip), vehicle: saline with Tween-80.
The mark [3] stands for this setting: endpoint: median tumor weight (est.), dose: 200.0 mg/kg/injection, schedule: Q07DX005 (ip), vehicle: saline with Tween-80.

Regarding `O=CC(NC(=O)N(CCCl)N=O)C(O)C(O)C(O)CO` (stereo not given), the T/C (endpoint: mean tumor weight, dose: 1.5 mg/kg/injection, schedule: Q02DX008 (ip), vehicle: saline) was 58 % of control; the T/C (endpoint: mean tumor weight, dose: 3.0 mg/kg/injection, schedule: Q02DX008 (ip), vehicle: saline) was 24 % of control; the T/C (endpoint: mean tumor weight, dose: 6.0 mg/kg/injection, schedule: Q02DX008 (ip), vehicle: saline) was 31 % of control; the T/C (endpoint: median tumor weight (est.), dose: 1.5 mg/kg/injection, schedule: Q07DX005 (ip), vehicle: saline) was 175 % of control; the T/C (endpoint: median tumor weight (est.), dose: 3.0 mg/kg/injection, schedule: Q07DX005 (ip), vehicle: saline) is 107 % of control; the T/C (endpoint: median tumor weight (est.), dose: 6.0 mg/kg/injection, schedule: Q07DX005 (ip), vehicle: saline) is 53 % of control. Moreover, the T/C reads like this: (endpoint: median tumor weight (est.), dose: 12.0 mg/kg/injection, schedule: Q07DX005 (ip), vehicle: saline) 14 % of control; (endpoint: median tumor weight (est.), dose: 24.0 mg/kg/injection, schedule: Q07DX005 (ip), vehicle: saline) 13 % of control.
As to `O=C(O)CC(NC(=O)CP(=O)(O)O)C(=O)O` (stereo not given), the T/C reads like this: (endpoint: median tumor weight (est.), dose: 25.0 mg/kg/injection, schedule: Q07DX005 (ip), vehicle: saline) 92 % of control; (endpoint: median tumor weight (est.), dose: 50.0 mg/kg/injection, schedule: Q07DX005 (ip), vehicle: saline) 94 % of control; (endpoint: median tumor weight (est.), dose: 100.0 mg/kg/injection, schedule: Q07DX005 (ip), vehicle: saline) 62 % of control; (endpoint: median tumor weight (est.), dose: 200.0 mg/kg/injection, schedule: Q07DX005 (ip), vehicle: saline) 56 % of control; (endpoint: median tumor weight (est.), dose: 400.0 mg/kg/injection, schedule: Q07DX005 (ip), vehicle: saline) 9 % of control; (endpoint: median tumor weight change, dose: 100.0 mg/kg/injection, schedule: Q01DX001 (ip), vehicle: saline) 81 % of control. Further, the T/C was 92 % of control (endpoint: median tumor weight change, dose: 200.0 mg/kg/injection, schedule: Q01DX001 (ip), vehicle: saline); 85 % of control (endpoint: median tumor weight change, dose: 400.0 mg/kg/injection, schedule: Q01DX001 (ip), vehicle: saline); 66 % of control (endpoint: median tumor weight change, dose: 800.0 mg/kg/injection, schedule: Q01DX001 (ip), vehicle: saline).
Turning to `COC1C=CC23c4cc5c(cc4C(O)OC2CN(C)C3C1)OCO5` (stereo not given), the T/C was 154 % of control (endpoint: median tumor weight (est.), dose: 18.75 mg/kg/injection, schedule: Q07DX005 (ip), vehicle: saline); 205 % of control (endpoint: median tumor weight (est.), dose: 37.5 mg/kg/injection, schedule: Q07DX005 (ip), vehicle: saline); 88 % of control (endpoint: median tumor weight (est.), dose: 75.0 mg/kg/injection, schedule: Q07DX005 (ip), vehicle: saline); 120 % of control (endpoint: median tumor weight (est.), dose: 150.0 mg/kg/injection, schedule: Q07DX005 (ip), vehicle: saline).
Regarding `C/C=C/c1cc2n(c1)C(=O)c1cc(OC3OC(C)C(NC)C(C)(O)C3O)c(C)c(O)c1NC2O` (stereo not given), the T/C (endpoint: median tumor weight (est.), dose: 1.0 micrograms/kg/injection, schedule: Q07DX005 (ip), vehicle: saline) is 60 % of control.
For `CCCCOC(=O)/C=C(\Br)C(=O)OCCCC`, the T/C under setting [1] is 115 % of control; the T/C under setting [2] is 95 % of control and 119 % of control; the T/C (endpoint: median tumor weight (est.), dose: 100.0 mg/kg/injection, schedule: Q07DX005 (ip), vehicle: saline with Tween-80) was 100 % of control and 119 % of control; the T/C under setting [3] was 114 % of control.
On to `COc1nc(C(Cl)(Cl)Cl)c(Cl)c(OC)c1Cl`, for which the T/C is 32 % of control (endpoint: median tumor weight change, dose: 60.0 mg/kg/injection, schedule: Q01DX005 (ip), vehicle: Klucel (hydroxypropylcellulose) (HPC)); 174 % of control (endpoint: median tumor weight change, dose: 62.5 mg/kg/injection, schedule: Q01DX001 (ip), vehicle: Klucel (hydroxypropylcellulose) (HPC)); 81 % of control and 95 % of control (endpoint: median tumor weight change, dose: 125.0 mg/kg/injection, schedule: Q01DX001 (ip), vehicle: Klucel (hydroxypropylcellulose) (HPC)); -15 % of control (endpoint: median tumor weight change, dose: 200.0 mg/kg/injection, schedule: Q01DX005 (ip), vehicle: Klucel (hydroxypropylcellulose) (HPC)).
For `BrC[P+](CBr)(CBr)CBr`, the T/C reads like this: (endpoint: median tumor weight change, dose: 125.0 mg/kg/injection, schedule: Q01DX001 (ip), vehicle: saline with Tween-80) 124 % of control; (endpoint: median tumor weight change, dose: 250.0 mg/kg/injection, schedule: Q01DX001 (ip), vehicle: saline with Tween-80) 152 % of control.
As for `O=C(C#Cc1ccccc1)c1ccccc1`, the T/C is 64 % of control (endpoint: median tumor weight (est.), dose: 0.39 mg/kg/injection, schedule: Q07DX005 (ip), vehicle: saline with Tween-80); 68 % of control (endpoint: median tumor weight (est.), dose: 0.78 mg/kg/injection, schedule: Q07DX005 (ip), vehicle: saline with Tween-80); 68 % of control (endpoint: median tumor weight (est.), dose: 1.56 mg/kg/injection, schedule: Q07DX005 (ip), vehicle: saline with Tween-80); 47 % of control (endpoint: median tumor weight (est.), dose: 3.12 mg/kg/injection, schedule: Q07DX005 (ip), vehicle: Klucel (hydroxypropylcellulose) (HPC)); 53 % of control (endpoint: median tumor weight (est.), dose: 3.12 mg/kg/injection, schedule: Q07DX005 (ip), vehicle: saline with Tween-80); 67 % of control (endpoint: median tumor weight (est.), dose: 6.25 mg/kg/injection, schedule: Q07DX005 (ip), vehicle: saline with Tween-80). Moreover, the T/C under setting [1] is 46 % of control.
Take `N#CCCN(C(=S)Nc1cccc(C(F)(F)F)c1)C1CCCCC1`: the T/C reads like this: (endpoint: median tumor weight (est.), dose: 25.0 mg/kg/injection, schedule: Q07DX005 (ip), vehicle: Klucel (hydroxypropylcellulose) (HPC)) 66 % of control; (endpoint: median tumor weight (est.), dose: 50.0 mg/kg/injection, schedule: Q07DX005 (ip), vehicle: Klucel (hydroxypropylcellulose) (HPC)) 116 % of control; (endpoint: median tumor weight (est.), dose: 100.0 mg/kg/injection, schedule: Q07DX005 (ip), vehicle: Klucel (hydroxypropylcellulose) (HPC)) 75 % of control; (endpoint: median tumor weight (est.), dose: 200.0 mg/kg/injection, schedule: Q07DX005 (ip), vehicle: Klucel (hydroxypropylcellulose) (HPC)) 60 % of control; (endpoint: median tumor weight (est.), dose: 400.0 mg/kg/injection, schedule: Q07DX005 (ip), vehicle: Klucel (hydroxypropylcellulose) (HPC)) 38 % of control; (endpoint: median tumor weight (est.), dose: 800.0 mg/kg/injection, schedule: Q07DX005 (ip), vehicle: Klucel (hydroxypropylcellulose) (HPC)) 60 % of control.
With `COc1ccc(C[C@H](N)C(=O)NC2C(CO)OC(n3cnc4c(N(C)C)ncnc43)C2O)cc1` (stereo not given in full), the T/C runs as follows: (endpoint: median tumor weight (est.), dose: 48.0 mg/kg/injection, schedule: Q07DX005 (ip), vehicle: saline) 90 % of control; (endpoint: median tumor weight (est.), dose: 96.0 mg/kg/injection, schedule: Q07DX005 (ip), vehicle: saline) 63 % of control; (endpoint: median tumor weight (est.), dose: 192.0 mg/kg/injection, schedule: Q07DX005 (ip), vehicle: saline) 62 % of control; (endpoint: median tumor weight (est.), dose: 384.0 mg/kg/injection, schedule: Q07DX005 (ip), vehicle: saline) 16 % of control.
As to `CC1=NN(c2cccc(S(=O)(=O)O)c2)C(=O)C1N=Nc1cc(Cl)cc(S(=O)(=O)O)c1O.CC1=NN(c2cccc(S(=O)(=O)O)c2)C(=O)C1N=Nc1cc(Cl)cc(S(=O)(=O)O)c1O.[Cr]` (stereo not given), the T/C is 245 % of control (endpoint: median tumor weight change, dose: 125.0 mg/kg/injection, schedule: Q01DX001 (ip), vehicle: saline) and 184 % of control (endpoint: median tumor weight change, dose: 250.0 mg/kg/injection, schedule: Q01DX001 (ip), vehicle: saline).
Consider `CCN(CC)CCCNc1nccc2c(C)c3[nH]c4ccncc4c3cc12`, for which the T/C (endpoint: median tumor weight change, dose: 25.0 mg/kg/injection, schedule: Q01DX001 (ip), vehicle: other) was 29 % of control and 32 % of control.
Turning to `OCCOCC(F)(F)F`, the T/C was 57 % of control under setting [1]; 102 % of control and 106 % of control under setting [2]; 97 % of control and 104 % of control (endpoint: median tumor weight (est.), dose: 50.0 mg/kg/injection, schedule: Q07DX005 (ip), vehicle: saline with Tween-80); 67 % of control under setting [3]; 70 % of control (endpoint: median tumor weight (est.), dose: 800.0 mg/kg/injection, schedule: Q07DX005 (ip), vehicle: saline with Tween-80).
For the compound `Nc1nc(N)c2c(ccc3c2ccn3Cc2cccc([N+](=O)[O-])c2)n1`, the T/C (endpoint: median tumor weight change, dose: 7.75 mg/kg/injection, schedule: Q01DX001 (ip), vehicle: saline with Tween-80) was 66 % of control; the T/C (endpoint: median tumor weight change, dose: 8.0 mg/kg/injection, schedule: Q01DX001 (ip), vehicle: saline with Tween-80) was 56 % of control; the T/C (endpoint: median tumor weight change, dose: 16.0 mg/kg/injection, schedule: Q01DX001 (ip), vehicle: saline with Tween-80) is 67 % of control.
